Reference: ChEMBL document CHEMBL4483862, “Open-source discovery of chemical leads for next-generation chemoprotective antimalarials” (2018)

Test system: Plasmodium berghei
Test: Luciferase/luciferin-expressing antifolate-resistant parasites were used to infect a culture of HepG2 cells that were pre-incubated with compounds. Infected hepatocytes emit light due to the luciferase reaction. Assay results are presented as the percent inhibition of light emission compared to control. […]
Type: functional
Details: sporozoite; for IC90: read-out: LUCIFERASE INFECTION ASSAY - IC90

| Compound | IC90 [µM] | further results |
| --- | --- | --- |
| CCN(C(S)=Nc1cccnc1)c1cccc2ccccc12 | > 10 | IC50 (HEPG2TOX_HILL_SLOPE 1.34, HEPG2TOX_R_SQUARED 0.711, PBLUC_HILL_SLOPE 4.21, PBLUC_R_SQUARED 0.184, read-out: LUCIFERASE INFECTION ASSAY - IC50): 7.6 µM |
| COc1ccc(CC(N)c2csc(NC(=O)c3cc(C(C)(C)C)nn3Cc3ccccc3)n2)cc1 (configuration not stated) | 5.64 | IC50 (HEPG2TOX_HILL_SLOPE 1.31, HEPG2TOX_R_SQUARED 0.716, PBLUC_HILL_SLOPE 7.57, PBLUC_R_SQUARED 0.705, read-out: LUCIFERASE INFECTION ASSAY - IC50): 4.22 µM |
| CN(C)CCNC(=O)c1cccc(-c2cnc3ccc(-c4cccc(NS(C)(=O)=O)c4)nn23)c1 | 1.3 | IC50 (HEPG2TOX_HILL_SLOPE 1.31, HEPG2TOX_R_SQUARED 0.978, PBLUC_HILL_SLOPE 2.06, PBLUC_R_SQUARED 0.888, read-out: LUCIFERASE INFECTION ASSAY - IC50): 0.447 µM |
| COc1ccc(-c2nc(C(=O)NC3CC3)cc3c2[nH]c2ccccc23)cc1 | 7.59 | IC50 (HEPG2TOX_HILL_SLOPE 1.32, HEPG2TOX_R_SQUARED 0.984, PBLUC_HILL_SLOPE 2.25, PBLUC_R_SQUARED 0.475, read-out: LUCIFERASE INFECTION ASSAY - IC50): 2.85 µM |
| COc1cc(CSc2nc3ccccc3c(=O)n2C(C)C)ccc1OC(F)F | 3.99 | IC50 (HEPG2TOX_HILL_SLOPE 1.32, HEPG2TOX_R_SQUARED 0.932, PBLUC_HILL_SLOPE 1.38, PBLUC_R_SQUARED 0.834, read-out: LUCIFERASE INFECTION ASSAY - IC50): 0.81 µM |
| COc1cc(C(=O)c2c(N)c(C#N)cn3c2nc2ccccc23)cc(OC)c1OC | 1.04 | IC50 (HEPG2TOX_HILL_SLOPE 1.34, 0.970, HEPG2TOX_R_SQUARED 0.842, 0.883, PBLUC_HILL_SLOPE 1.49, PBLUC_R_SQUARED 0.764, read-out: LUCIFERASE INFECTION ASSAY - IC50): 0.237 µM |
| Cn1c(NCC2CC2)nc2cnc(Nc3cccc(Oc4ccccc4)c3)cc21 | 3.77 | IC50 (HEPG2TOX_HILL_SLOPE 1.32, HEPG2TOX_R_SQUARED 0.983, PBLUC_HILL_SLOPE 3.67, PBLUC_R_SQUARED 0.52, read-out: LUCIFERASE INFECTION ASSAY - IC50): 2.07 µM |
| Cc1cc(C(=O)COc2ccccc2C(N)=O)c(C)n1C(C)c1ccccc1 (configuration not stated) | > 10 | IC50 (HEPG2TOX_HILL_SLOPE 1.33, HEPG2TOX_R_SQUARED 0.859, PBLUC_HILL_SLOPE 2.23, PBLUC_R_SQUARED 0.779, read-out: LUCIFERASE INFECTION ASSAY - IC50): 4.55 µM |
| CC(C)c1ccc(NC(=O)C2=COC3=NC(=O)N(Cc4cccc(C#N)c4)CCN23)cc1 | 1.27 | IC50 (HEPG2TOX_HILL_SLOPE 1.33, HEPG2TOX_R_SQUARED 0.794, PBLUC_HILL_SLOPE 15.4, PBLUC_R_SQUARED 0.591, read-out: LUCIFERASE INFECTION ASSAY - IC50): 1.1 µM |
| COc1ccc(CN=C2NN=C(c3cc4ccccc4o3)CS2)cc1 | 0.318 | IC50 (HEPG2TOX_HILL_SLOPE 1.33, HEPG2TOX_R_SQUARED 0.982, PBLUC_HILL_SLOPE 1.63, PBLUC_R_SQUARED 0.322, read-out: LUCIFERASE INFECTION ASSAY - IC50): 0.0829 µM |
| COc1ccc(-c2ccc3nnc(-c4ccccc4)n3c2)cc1 | 5.12 | IC50 (HEPG2TOX_HILL_SLOPE 1.32, HEPG2TOX_R_SQUARED 0.91, PBLUC_HILL_SLOPE 2.27, PBLUC_R_SQUARED 0.548, read-out: LUCIFERASE INFECTION ASSAY - IC50): 1.94 µM |
| Cc1cc(C(=O)OCC(=O)NC(C)c2ccccc2)c(C)n1-c1ccccc1 (configuration not stated) | > 10 | IC50 (HEPG2TOX_HILL_SLOPE 1.33, HEPG2TOX_R_SQUARED 0.976, PBLUC_HILL_SLOPE 3.52, PBLUC_R_SQUARED 0.43, read-out: LUCIFERASE INFECTION ASSAY - IC50): 7.39 µM |
| CCOc1cccc(-c2cn3c(-c4ccc(C(=O)NC5CC5)cc4)cnc3cn2)c1 | 8.02 | IC50 (HEPG2TOX_HILL_SLOPE 1.3, HEPG2TOX_R_SQUARED 0.854, PBLUC_HILL_SLOPE 1.74, PBLUC_R_SQUARED 0.806, read-out: LUCIFERASE INFECTION ASSAY - IC50): 2.27 µM |
| CC(C)n1ncc2c1N=C(N(C)C)N(c1ccccc1)C2c1ccc(Cl)cc1 (configuration not stated) | > 10 | IC50 (HEPG2TOX_HILL_SLOPE 1.3, HEPG2TOX_R_SQUARED 0.392, read-out: LUCIFERASE INFECTION ASSAY - IC50): > 10 µM |
| O=C(NC(CN1CCCC1)c1ccccc1)c1ccc(N2CCCC2=O)cc1 (configuration not stated) | > 10 | IC50 (HEPG2TOX_HILL_SLOPE 1.34, HEPG2TOX_R_SQUARED 0.227, PBLUC_HILL_SLOPE 0.905, PBLUC_R_SQUARED 0.0409, read-out: LUCIFERASE INFECTION ASSAY - IC50): > 10 µM |
| CCOC(=O)c1oc2ccc(Br)cc2c1CSc1nnc(-c2cccs2)n1Cc1ccccc1 | > 10 | IC50 (HEPG2TOX_HILL_SLOPE 1.32, HEPG2TOX_R_SQUARED 0.694, read-out: LUCIFERASE INFECTION ASSAY - IC50): > 10 µM |

| Compound | IC90 [µM] | further results |
| --- | --- | --- |
| CC(Oc1ccc(C#N)cc1)C(=O)Nc1nc(-c2ccccn2)cs1 (configuration not stated) | 3.36 | IC50 (HEPG2TOX_HILL_SLOPE 1.33, HEPG2TOX_R_SQUARED 0.927, PBLUC_HILL_SLOPE 145, PBLUC_R_SQUARED 0.223, read-out: LUCIFERASE INFECTION ASSAY - IC50): 3.31 µM |
| CCCc1cc(=O)n2ncc(-c3ccc(Cl)cc3)c2[nH]1 | 3.65 | IC50 (HEPG2TOX_HILL_SLOPE 1.31, HEPG2TOX_R_SQUARED 0.875, PBLUC_HILL_SLOPE 1.68, PBLUC_R_SQUARED 0.622, read-out: LUCIFERASE INFECTION ASSAY - IC50): 0.989 µM |
| CCOC(=O)c1[nH]c(C)c(C(=O)/C=C/c2c(C)nn(-c3ccc(F)cc3)c2Cl)c1C | 0.643 | IC50 (HEPG2TOX_HILL_SLOPE 1.33, HEPG2TOX_R_SQUARED 0.905, PBLUC_HILL_SLOPE 0.748, PBLUC_R_SQUARED 0.781, read-out: LUCIFERASE INFECTION ASSAY - IC50): 0.0341 µM |
| Cc1nc(NCCCCCc2n[nH]c(N)c2C#N)c2c(-c3ccccc3)csc2n1 | 7.48 | IC50 (HEPG2TOX_HILL_SLOPE 1.31, HEPG2TOX_R_SQUARED 0.867, PBLUC_HILL_SLOPE 3.24, PBLUC_R_SQUARED 0.486, read-out: LUCIFERASE INFECTION ASSAY - IC50): 3.79 µM |
| CCc1nnc(NC(=O)/C=C/c2cc(Cl)c(OC(C)C)c(OC)c2)s1 | > 10 | IC50 (HEPG2TOX_HILL_SLOPE 1.31, HEPG2TOX_R_SQUARED 0.955, PBLUC_HILL_SLOPE 2.51, PBLUC_R_SQUARED 0.0872, read-out: LUCIFERASE INFECTION ASSAY - IC50): 6.82 µM |
| c1ccc(-c2cn3c(-c4ccc5ncccc5c4)cnc3cn2)cc1 | 2.41 | IC50 (HEPG2TOX_HILL_SLOPE 1.31, HEPG2TOX_R_SQUARED 0.967, PBLUC_HILL_SLOPE 1.9, PBLUC_R_SQUARED 0.856, read-out: LUCIFERASE INFECTION ASSAY - IC50): 0.759 µM |
| O=c1cc(-c2ccccc2)[nH]c2cc(-c3ccccc3)nn12 | > 11.5 | IC50 (HEPG2TOX_HILL_SLOPE 1.32, HEPG2TOX_R_SQUARED 0.936, PBLUC_HILL_SLOPE 1.62, PBLUC_R_SQUARED 0.566, read-out: LUCIFERASE INFECTION ASSAY - IC50): 3.75 µM |
| COc1ccc(C(=O)c2cc(C#N)c(N)n3c2nc2ccccc23)cc1 | 3.53 | IC50 (HEPG2TOX_HILL_SLOPE 1.32, HEPG2TOX_R_SQUARED 0.922, PBLUC_HILL_SLOPE 2.77, PBLUC_R_SQUARED 0.822, read-out: LUCIFERASE INFECTION ASSAY - IC50): 1.6 µM |
| Cn1ccc2cc(-c3cn4c(-c5ccccc5)cnc4cn3)ccc21 | 2.78 | IC50 (HEPG2TOX_HILL_SLOPE 1.3, HEPG2TOX_R_SQUARED 0.937, PBLUC_HILL_SLOPE 1.56, PBLUC_R_SQUARED 0.678, read-out: LUCIFERASE INFECTION ASSAY - IC50): 0.679 µM |
| CCOC(=O)c1c(C)[nH]c(C(=O)C(C)OC(=O)CN2C(=O)C3CC=CCC3C2=O)c1C (configuration not stated) | > 10 | IC50 (HEPG2TOX_HILL_SLOPE 1.33, HEPG2TOX_R_SQUARED 0.914, read-out: LUCIFERASE INFECTION ASSAY - IC50): > 10 µM |
| COc1ccc(CN2CCCN(C(=O)c3ccc(CSc4nc5ccccc5[nH]4)cc3)CC2)cc1 | > 10 | IC50 (HEPG2TOX_HILL_SLOPE 1.31, HEPG2TOX_R_SQUARED 0.944, read-out: LUCIFERASE INFECTION ASSAY - IC50): > 10 µM |
| N#C/C(=N\Nc1ccc(Cl)cc1Cl)C(=O)c1ccc(Cl)cc1 | 1.16 | IC50 (HEPG2TOX_HILL_SLOPE 1.3, HEPG2TOX_R_SQUARED 0.915, PBLUC_HILL_SLOPE 13.3, PBLUC_R_SQUARED 0.668, read-out: LUCIFERASE INFECTION ASSAY - IC50): 0.987 µM |
| C/C(=N\NC(=O)c1ccccc1)c1ccccc1O | > 13 | IC50 (HEPG2TOX_HILL_SLOPE 1.31, HEPG2TOX_R_SQUARED 0.966, PBLUC_HILL_SLOPE 10.4, PBLUC_R_SQUARED 0.464, read-out: LUCIFERASE INFECTION ASSAY - IC50): > 13 µM |
| Clc1ccc(CSCc2cc(SCc3ccc(Cl)cc3Cl)nc(-c3ccccn3)n2)cc1 | 0.781 | IC50 (HEPG2TOX_HILL_SLOPE 1.3, HEPG2TOX_R_SQUARED 0.951, PBLUC_HILL_SLOPE 11.6, PBLUC_R_SQUARED 0.668, read-out: LUCIFERASE INFECTION ASSAY - IC50): 0.646 µM |
| Cc1cc(-c2cc(C(=O)Nc3nnc(C(F)(F)F)[nH]3)c3cnn(C(C)C)c3n2)c(C)s1 | > 10 | IC50 (HEPG2TOX_HILL_SLOPE 1.32, HEPG2TOX_R_SQUARED 0.884, PBLUC_HILL_SLOPE 1.68, PBLUC_R_SQUARED 0.6, read-out: LUCIFERASE INFECTION ASSAY - IC50): 3.79 µM |
